{"source": "ChEMBL document CHEMBL1153336", "about": "“Cytotoxicity of cardenolides and cardenolide glycosides from Asclepias curassavica” (Bioorg Med Chem Lett, 2009)", "key": {"HepG2": {"system": "HepG2", "assay": "Cytotoxicity against human HepG2 cells by MTT assay", "assay_type": "functional, cell-based"}, "Raji": {"system": "Raji", "assay": "Cytotoxicity against human Raji cells by MTT assay", "assay_type": "functional, cell-based"}}, "data": [{"compound": "C[C@@H]1C[C@H](O)[C@]2(O)O[C@@H]3C[C@@]4(C=O)[C@@H](CC[C@@H]5[C@@H]4C[C@@H](O)[C@]4(C)[C@@H](C6=CC(=O)OC6)CC[C@]54O)C[C@H]3O[C@@H]2O1", "values": [{"measurement": "IC50", "setting": "HepG2", "value": 690, "unit": "nM"}, {"measurement": "IC50", "setting": "Raji", "value": 1460, "unit": "nM"}]}, {"compound": "CC(=O)O[C@@H]1C[C@]2(O)[C@@H]3CC[C@H]4C[C@H]5O[C@@H]6O[C@H](C)C[C@H](O)[C@]6(O)O[C@@H]5C[C@]4(C=O)[C@H]3CC[C@]2(C)[C@H]1C1=CC(=O)OC1", "values": [{"measurement": "IC50", "setting": "HepG2", "value": 1340, "unit": "nM"}, {"measurement": "IC50", "setting": "Raji", "value": 3540, "unit": "nM"}]}, {"compound": "CC(=O)O[C@H]1C[C@@H](C)O[C@H]2O[C@@H]3C[C@@H]4CC[C@@H]5[C@H](CC[C@]6(C)[C@@H](C7=CC(=O)OC7)[C@H](OC(C)=O)C[C@]56O)[C@@]4(C=O)C[C@H]3O[C@]21O", "values": [{"measurement": "IC50", "setting": "HepG2", "value": 760, "unit": "nM"}, {"measurement": "IC50", "setting": "Raji", "value": 3210, "unit": "nM"}]}, {"compound": "CC(=O)O[C@H]1C[C@@H](C)O[C@H]2O[C@@H]3C[C@@H]4CC[C@@H]5[C@H](CC[C@]6(C)[C@@H](C7=CC(=O)OC7)[C@H](O)C[C@]56O)[C@@]4(C=O)C[C@H]3O[C@]21O", "values": [{"measurement": "IC50", "setting": "HepG2", "value": 3030, "unit": "nM"}, {"measurement": "IC50", "setting": "Raji", "value": 50, "unit": "nM"}]}, {"compound": "CO[C@]12CC[C@@]3(CO1)[C@@H](CC[C@@H]1[C@@H]3C[C@@H](O)[C@]3(C)[C@@H](C4=CC(=O)OC4)CC[C@]13O)C2", "values": [{"measurement": "IC50", "setting": "HepG2", "value": 89900, "unit": "nM"}, {"measurement": "IC50", "setting": "Raji", "value": 64700, "unit": "nM"}]}, {"compound": "COc1cc(/C=C/C(=O)OC[C@H]2O[C@@H](O[C@H]3CC[C@@]4(C)[C@@H](CC[C@@H]5[C@@H]4CC[C@]4(C)[C@@H](C6=CC(=O)OC6)CC[C@]54O)C3)[C@H](O)[C@@H](O)[C@@H]2O)ccc1O", "values": [{"measurement": "IC50", "setting": "HepG2", "value": "> 100000", "unit": "nM"}, {"measurement": "IC50", "setting": "Raji", "value": 41100, "unit": "nM"}]}, {"compound": "C[C@]12[C@H](O)C[C@H]3[C@@H](CC[C@H]4C[C@@H](O)CC[C@@]43CO)[C@@]1(O)CC[C@@H]2C1=CC(=O)OC1", "values": [{"measurement": "IC50", "setting": "HepG2", "value": 5170, "unit": "nM"}, {"measurement": "IC50", "setting": "Raji", "value": 14600, "unit": "nM"}]}, {"compound": "CC(=O)O[C@H]1C[C@@H](C)O[C@H]2O[C@@H]3C[C@@H]4CC[C@@H]5[C@H](CC[C@]6(C)[C@@H](C7=CC(=O)OC7)CC[C@]56O)[C@@]4(C=O)C[C@H]3O[C@]21O", "note": "[ASCLEPIN]", "values": [{"measurement": "IC50", "setting": "HepG2", "value": 20, "unit": "nM"}, {"measurement": "IC50", "setting": "Raji", "value": 20, "unit": "nM"}]}, {"compound": "C[C@]12CC[C@H]3[C@@H](CC[C@H]4C[C@@H](O)[C@H](O)C[C@@]43C=O)[C@@]1(O)CC[C@@H]2C1=CC(=O)OC1", "note": "[CALOTROPAGENIN]", "values": [{"measurement": "IC50", "setting": "HepG2", "value": 56600, "unit": "nM"}, {"measurement": "IC50", "setting": "Raji", "value": 24300, "unit": "nM"}]}, {"compound": "C[C@@H]1C[C@H](O)[C@]2(O)O[C@@H]3C[C@@]4(C=O)[C@@H](CC[C@@H]5[C@@H]4CC[C@]4(C)[C@@H](C6=CC(=O)OC6)CC[C@]54O)C[C@H]3O[C@@H]2O1", "note": "[CALOTROPIN]", "values": [{"measurement": "IC50", "setting": "HepG2", "value": 40, "unit": "nM"}, {"measurement": "IC50", "setting": "Raji", "value": 20, "unit": "nM"}]}, {"compound": "C[C@]12CC[C@H]3[C@@H](CC[C@H]4C[C@@H](O)CC[C@@]43CO)[C@@]1(O)CC[C@@H]2C1=CC(=O)OC1", "note": "[COROGLAUCIGENIN]", "values": [{"measurement": "IC50", "setting": "HepG2", "value": 6700, "unit": "nM"}, {"measurement": "IC50", "setting": "Raji", "value": 140, "unit": "nM"}]}, {"compound": "C[C@]12CC[C@H](O[C@@H]3O[C@H](CO)[C@@H](O)[C@H](O)[C@H]3O)C[C@@H]1CC[C@@H]1[C@@H]2CC[C@]2(C)[C@@H](C3=CC(=O)OC3)CC[C@]12O", "note": "[DESGLUCOUZARIN]", "values": [{"measurement": "IC50", "setting": "HepG2", "value": 8530, "unit": "nM"}, {"measurement": "IC50", "setting": "Raji", "value": 750, "unit": "nM"}]}, {"compound": "C[C@@H]1CC(=O)[C@]2(O)O[C@@H]3C[C@@]4(C=O)[C@@H](CC[C@@H]5[C@@H]4CC[C@]4(C)[C@@H](C6=CC(=O)OC6)CC[C@]54O)C[C@H]3O[C@@H]2O1", "note": "[USCHARIDIN]", "values": [{"measurement": "IC50", "setting": "HepG2", "value": 380, "unit": "nM"}, {"measurement": "IC50", "setting": "Raji", "value": 20, "unit": "nM"}]}]}
